# Results as given in patent US10669272B2, “Substituted naphthyridinone compounds useful as T cell activators” (BRISTOL-MYERS SQUIBB COMPANY, priority 2018, dated 2020).
# pEC50, pIC50: −log10 of the molar value. Structures can show the parent of a compound that is named as a salt. Where two headings read alike, the source gives them in different places.
# Key:
# human DGKζ = molecular target: T1, human DGKζ (Homo sapiens, UniProt Q13574); test: DGKζ LIPGLO assay (extruded liposome substrate), in vitro DGK inhibition; format: biochemical; settings: read-out: DGKz LIPGLO IC50
# T1 construct: TVMV protease cleavage site (C); Hexa-His (C); made in house; host or cells: Sf9 insect cells (baculovirus, Bac-to-Bac)
# Human venous whole blood = test: Human whole blood IFN-γ assay; format: cell-based; settings: human whole blood, read-out: INFg Whole Blood Normalized Agonist EC50;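 note: blood from healthy donors exposed to compound for 1 h before stimulation with anti-CD3 and anti-CD28 at 1 µg/mL each, IFN-γ quantified in supernatant by AlphaLISA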
# Protocol: Human Whole Blood IFN-γ Assay
# Human venous whole blood (22.5 μL per well), obtained from healthy donors, was pre-treated with compounds for one hour at 37° C. in a humidified 95% air/5% CO2 incubator. The blood was stimulated with 2.5 μL anti-human CD3 and anti-CD28 mAb at a final concentration of 1 μg/mL each for 24 hours at 37° C. IFN-γ in the supernatants was measured using AlphLISA kit (Cat # AL217).
# human DGKα = molecular target: T2, human DGKα (Homo sapiens, UniProt P23743); test: DGKα LIPGLO assay (extruded liposome substrate), in vitro DGK inhibition; format: biochemical; settings: read-out: DGKa LIPGLO IC50
# T2 construct: TVMV protease cleavage site (C); Hexa-His (C); made in house; host or cells: Sf9 insect cells (baculovirus, Bac-to-Bac)
# [1] = normalized to 3 μM reference compound with anti-CD3 plus anti-CD28 as 100% activation
# [2] = Homo sapiens, 24 h, normalized to 3 μM reference compound with anti-CD3 plus anti-CD28 as 100% activation
# [3] = Homo sapiens, 24 h, anti-CD3 plus anti-CD28, 24 hours, 3 μM reference compound = 100% activation
# [4] = anti-CD3 plus anti-CD28, 24 hours, 3 μM reference compound = 100% activation
# T1 sequence (Q13574 with tags, fused parts or gaps isoform Q13574-4): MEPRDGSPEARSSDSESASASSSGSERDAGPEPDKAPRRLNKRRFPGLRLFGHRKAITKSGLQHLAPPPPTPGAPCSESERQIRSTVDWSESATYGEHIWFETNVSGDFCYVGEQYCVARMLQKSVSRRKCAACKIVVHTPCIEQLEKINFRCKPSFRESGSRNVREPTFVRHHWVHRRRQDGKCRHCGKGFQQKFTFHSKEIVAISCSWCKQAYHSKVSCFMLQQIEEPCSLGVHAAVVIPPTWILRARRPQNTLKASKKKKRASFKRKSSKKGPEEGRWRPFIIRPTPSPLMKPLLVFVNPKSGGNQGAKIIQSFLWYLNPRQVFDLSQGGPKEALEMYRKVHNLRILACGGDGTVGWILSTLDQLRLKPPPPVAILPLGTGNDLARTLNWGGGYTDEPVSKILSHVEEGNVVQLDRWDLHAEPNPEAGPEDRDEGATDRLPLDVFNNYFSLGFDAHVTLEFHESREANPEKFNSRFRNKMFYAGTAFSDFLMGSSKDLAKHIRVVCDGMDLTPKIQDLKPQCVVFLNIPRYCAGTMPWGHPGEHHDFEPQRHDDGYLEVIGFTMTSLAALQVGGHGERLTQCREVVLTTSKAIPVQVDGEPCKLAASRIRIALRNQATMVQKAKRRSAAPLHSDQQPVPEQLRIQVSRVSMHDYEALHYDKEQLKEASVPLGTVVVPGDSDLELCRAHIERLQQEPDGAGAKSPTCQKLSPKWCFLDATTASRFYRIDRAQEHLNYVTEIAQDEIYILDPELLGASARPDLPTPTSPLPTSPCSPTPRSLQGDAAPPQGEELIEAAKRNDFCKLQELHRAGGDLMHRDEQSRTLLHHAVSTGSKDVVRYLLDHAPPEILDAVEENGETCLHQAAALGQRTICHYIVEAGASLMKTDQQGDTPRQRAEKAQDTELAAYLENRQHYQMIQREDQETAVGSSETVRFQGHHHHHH
# T2 sequence (P23743 with tags, fused parts or gaps): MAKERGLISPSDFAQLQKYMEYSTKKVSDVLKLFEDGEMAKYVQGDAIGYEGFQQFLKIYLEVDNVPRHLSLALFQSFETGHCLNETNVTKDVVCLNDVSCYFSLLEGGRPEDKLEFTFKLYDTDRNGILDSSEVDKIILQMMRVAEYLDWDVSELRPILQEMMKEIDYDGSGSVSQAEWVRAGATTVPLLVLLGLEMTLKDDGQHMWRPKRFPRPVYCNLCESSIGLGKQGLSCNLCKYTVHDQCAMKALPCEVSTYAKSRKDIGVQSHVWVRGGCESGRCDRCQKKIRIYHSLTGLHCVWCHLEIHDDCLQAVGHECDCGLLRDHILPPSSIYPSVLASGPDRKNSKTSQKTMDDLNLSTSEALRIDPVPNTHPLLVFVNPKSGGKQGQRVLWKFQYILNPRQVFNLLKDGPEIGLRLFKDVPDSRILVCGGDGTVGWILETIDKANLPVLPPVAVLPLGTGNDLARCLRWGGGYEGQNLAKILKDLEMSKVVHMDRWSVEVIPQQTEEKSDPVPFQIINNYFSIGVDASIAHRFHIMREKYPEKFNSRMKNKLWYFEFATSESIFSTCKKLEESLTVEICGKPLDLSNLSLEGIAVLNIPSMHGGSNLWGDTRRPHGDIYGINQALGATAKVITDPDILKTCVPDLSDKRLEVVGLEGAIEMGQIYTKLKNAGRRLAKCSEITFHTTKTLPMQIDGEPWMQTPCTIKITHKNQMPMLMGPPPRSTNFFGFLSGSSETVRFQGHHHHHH
SMILES,pIC50 (human DGKζ; liposome (LIPGLO) assay),pEC50 (Human venous whole blood; [1]),pIC50 (human DGKα; liposome (LIPGLO) assay),other results
"CC(c1ccc(OC(F)F)cn1)N1C[C@H](C)N(c2cc(=O)n(C)c3ccc(C#N)nc23)C[C@H]1C (single isomer, unassigned) [Example 1224]",5.85,5.74,7.39,–
"Cc1nccc(C(c2ccc(F)cc2)N2C[C@H](C)N(c3cc(=O)n(C)c4ccc(C#N)nc34)C[C@H]2C)n1 (single isomer, unassigned) [Example 401]",5.35,6.03,5.11,–
C[C@@H]1CN(c2cc(=O)n(C)c3ccc(C#N)nc23)[C@@H](C)CN1C(c1ccc(F)cc1)c1cncn1C (stereo partly drawn) [Example 704],4.34,–,4.07,pEC50 (Human venous whole blood; [2]): 4.77
"C[C@@H]1CN(c2cc(=O)n(C)c3ccc(C#N)nc23)[C@@H](C)CN1C(c1ccccc1)c1ccc(Cl)cc1 (single isomer, unassigned) [Example 670]",5.44,5.55,5.96,–
CC(C)Oc1ccc(C(c2cccc(F)c2)N2C[C@H](C)N(c3cc(=O)n(C)c4ccc(C#N)nc34)C[C@H]2C)nc1 (stereo partly drawn) [Example 691],6.25,5.57,5.35,–
C[C@@H]1CN(c2c(C#N)c(=O)n(C)c3ccc(C#N)nc23)CCN1C(c1cccc(Cl)c1)c1ccc(F)cn1 (stereo partly drawn) [Example 926],–,–,–,pIC50 (human DGKζ; DGKζ liposome (LIPGLO) assay): 5.40; pEC50 (Human venous whole blood; [3]): 5.92; pIC50 (human DGKα; DGKα liposome (LIPGLO) assay): 5.60
CC[C@@H]1CN(c2cc(=O)n(C)c3ccc(C#N)nc23)[C@@H](C)CN1C(c1ccc(Cl)cc1)c1ccc(F)cn1 (stereo partly drawn) [Example 1111],7.11,6.51,6.70,–
"Cc1ccc(C(c2cccc(F)c2)N2C[C@H](C)N(c3cc(=O)n(C)c4ccc(C#N)nc34)C[C@H]2C)cn1 (stereo partly drawn) [Example 417, 8-((2S,5R)-4-((3-fluorophenyl)(6-methylpyridin-3-yl)methyl)-2,5-dimethylpiperazin-1-yl)-5-methyl-6-oxo-5,6-dihydro-1,5-naphthyridine-2-carbonitrile]",4.96,5.11,4.70,–
"CCC(c1ccc(OC(F)(F)F)cc1F)N1C[C@H](C)N(c2cc(=O)n(C)c3ccc(C#N)nc23)C[C@H]1CC (single isomer, unassigned) [Example 420]",6.60,6.82,6.51,–
"CC[C@H]1CN(C(C)c2ccc(OC(F)(F)F)cc2)[C@H](CC)CN1c1cc(=O)n(C)c2ccc(C#N)nc12 (single isomer, unassigned) [Example 1054]",6.23,5.57,6.33,–
C[C@@H]1CN(c2cc(=O)n(C)c3ccc(C#N)nc23)[C@@H](C)CN1C(c1ccc(F)cc1)c1ncno1 (stereo partly drawn) [Example 755],–,–,–,pIC50 (human DGKζ; DGKζ liposome (LIPGLO) assay): 4.21; pEC50 (Human venous whole blood; [3]): 4.74; pIC50 (human DGKα; DGKα liposome (LIPGLO) assay): 5.59
"CC(c1ccc(OC(F)(F)F)c(F)c1)N1C[C@H](C)N(c2cc(=O)n(C)c3ccc(C#N)nc23)C[C@H]1C (single isomer, unassigned) [Example 1204]",6.33,6.27,6.92,–
"Cc1ccc(C(C)N2C[C@H](C)N(c3c(C#N)c(=O)n(C)c4ccc(C#N)nc34)C[C@H]2C)cc1 (single isomer, unassigned) [Example 784]",–,–,–,pIC50 (human DGKζ; DGKζ liposome (LIPGLO) assay): 5.59; pEC50 (Human venous whole blood; [4]): 5.70; pIC50 (human DGKα; DGKα liposome (LIPGLO) assay): 5.92
C[C@@H]1CN(c2c(C#N)c(=O)n(C)c3ccc(C#N)nc23)CCN1C(c1ccc(F)cc1)c1cnsc1 (stereo partly drawn) [Example 1028],5.15,–,5.82,pEC50 (Human venous whole blood; [2]): 5.55
C[C@@H]1CN(c2cc(=O)n(C)c3ccc(C#N)nc23)[C@@H](C)CN1Cc1cc(F)c(F)c(F)c1 [Example 1235],6.20,–,5.96,pEC50 (Human venous whole blood; [2]): 5.48
"C[C@@H]1CN(c2cc(=O)n(C)c3ccc(C#N)nc23)[C@@H](C)CN1C(c1ccc(F)cc1)c1cccc(C(F)F)n1 (single isomer, unassigned) [Example 696]",6.62,6.38,6.62,–

SMILES,pIC50 (human DGKζ; liposome (LIPGLO) assay),pEC50 (Human venous whole blood; [1]),pIC50 (human DGKα; liposome (LIPGLO) assay),other results
"CC(c1ccc(OC(F)(F)F)cc1)N1CCN(c2c(C#N)c(=O)n(C)c3ccc(C#N)nc23)C[C@H]1C (single isomer, unassigned) [Example 962]",–,–,–,pIC50 (human DGKζ; DGKζ liposome (LIPGLO) assay): < 3.60; pEC50 (Human venous whole blood; [4]): 4.70; pIC50 (human DGKα; DGKα liposome (LIPGLO) assay): 5.82
C[C@@H]1CN(c2c(C#N)c(=O)n(C)c3ccc(C#N)nc23)CCN1Cc1ccccc1C#N [Example 1009],–,–,–,pIC50 (human DGKζ; DGKζ liposome (LIPGLO) assay): 5.17; pEC50 (Human venous whole blood; [3]): 4.70; pIC50 (human DGKα; DGKα liposome (LIPGLO) assay): 5.74
"CCC(c1ccc(C2CC2)cc1F)N1C[C@H](CC)N(c2cc(=O)n(C)c3ccc(C#N)nc23)C[C@H]1CC (single isomer, unassigned) [Example 1359]",7.60,7.36,7.28,–
"C[C@@H]1CN(c2cc(=O)n(C)c3ccc(C#N)nc23)[C@@H](C)CN1C(c1ccc(F)cc1)c1csc(C2CC2)n1 (single isomer, unassigned) [Example 723]",–,–,–,pIC50 (human DGKζ; DGKζ liposome (LIPGLO) assay): 7.96; pEC50 (Human venous whole blood; [3]): 6.35; pIC50 (human DGKα; DGKα liposome (LIPGLO) assay): 6.51
"COC[C@@H]1CN(c2cc(=O)n(C)c3ccc(C#N)nc23)[C@@H](C)CN1C(c1ccc(F)cc1)c1nc(C2CC2)no1 (single isomer, unassigned) [Example 1394]",7.43,–,7.28,pEC50 (Human venous whole blood; [2]): 6.35
C[C@@H]1CN(c2c(C#N)c(=O)n(C)c3ccc(C#N)nc23)[C@@H](C)CN1C(c1ccc(F)cc1)c1cncn1C (stereo partly drawn) [Example 848],–,–,–,pIC50 (human DGKζ; DGKζ liposome (LIPGLO) assay): 4.00; pEC50 (Human venous whole blood; [3]): 4.70; pIC50 (human DGKα; DGKα liposome (LIPGLO) assay): 3.64
"C[C@H]1CN(C(c2ccc(F)cc2)c2ccon2)[C@H](CO)CN1c1cc(=O)n(C)c2ccc(C#N)nc12 (single isomer, unassigned) [Example 1391]",5.70,6.15,6.82,–
"C[C@@H]1CN(c2cc(=O)n(C)c3ccc(C#N)nc23)[C@@H](C)CN1C(c1ccc(F)cc1)c1nccs1 (single isomer, unassigned) [Example 712]",6.14,5.55,6.49,–
"C[C@@H]1CN(c2cc(=O)n(C)c3ccc(C#N)nc23)[C@@H](C)CN1C(c1ccc(F)cn1)c1cccc2c1OC(C)(C)C2 (single isomer, unassigned) [Example 467]",6.35,4.70,6.01,–
C[C@@H]1CN(c2c(C#N)c(=O)n(C)c3ccc(C#N)nc23)CCN1C(c1ccc(F)cc1)c1cocn1 (stereo partly drawn) [Example 1023],–,–,–,pIC50 (human DGKζ; DGKζ liposome (LIPGLO) assay): 4.89; pEC50 (Human venous whole blood; [4]): 5.46; pIC50 (human DGKα; DGKα liposome (LIPGLO) assay): 5.44
C[C@@H]1CN(c2cc(=O)n(C)c3ccc(C#N)nc23)[C@@H](C)CN1Cc1ccc(P(C)(C)=O)cc1 [Example 1289],3.89,–,4.29,pEC50 (Human venous whole blood; [2]): 4.70
COc1ccc(C(C)N2C[C@H](C)N(c3cc(=O)n(C)c4ccc(C#N)nc34)C[C@H]2C)cc1C(F)(F)F (stereo partly drawn) [Example 1249],6.19,–,4.29,pEC50 (Human venous whole blood; [2]): 4.77
C[C@@H]1CN(c2cc(=O)n(C)c3ccc(C#N)nc23)[C@@H](C)CN1Cc1ccc(OC(F)(F)F)c(Br)c1 [Example 629],4.74,–,4.96,pEC50 (Human venous whole blood; [2]): 5.38
"CC[C@H]1CN(C(C)c2ccc(OC(F)(F)F)cc2)[C@H](C)CN1c1cc(=O)n(C)c2ccc(C#N)nc12 (single isomer, unassigned) [Example 1142]",5.80,5.92,6.15,–
"C[C@@H]1CN(c2cc(=O)n(C)c3ccc(C#N)nc23)[C@@H](C)CN1C(c1ccccc1)c1c(F)cccc1F (single isomer, unassigned) [Example 273, TFA]",4.82,–,5.42,"pEC50 (Human venous whole blood; normalized to 3 μM reference compound with anti-CD3 plus anti-CD28 as 100% activation, TFA): 5.15"
